In general, IC50 refers to the concentration needed to halve the response being measured. A high value points to weaker potency in that assay.

Data on 4 compounds can be found in paper PMC9338942, “(+)-Usnic acid and its salts, inhibitors of SARS‐CoV‐2, identified by using in silico methods and in vitro assay” (Scientific Reports, 2022).

What all share (assay): microbe, parasite or virus in culture
Type in all cases: cell-based
Details in all cases: Severe acute respiratory syndrome coronavirus 2, vero cells

The test system of test [1] is SARS-CoV-2 Alpha var (B.1.1.7).
Test [2] deals with SARS-CoV-2 Beta var (B.1.351).
In test [3] the test system is SARS-CoV-2 Delta var (B.1.617.2).

Turning to `CCN(CC)CCCC(C)Nc1ccnc2cc(Cl)ccc12` (stereo not drawn) [chloroquine], the results for the IC50 in test [1], in test [2] and in test [3] were 6.16 µM, 2640 nM and 6.22 µM, respectively.

Take `Cc1cccc(C)c1OCC(=O)N[C@@H](Cc1ccccc1)[C@@H](O)C[C@H](Cc1ccccc1)NC(=O)[C@H](C(C)C)N1CCCNC1=O` [lopinavir]: the values for the IC50 in test [1], in test [2] and in test [3] were 10.8 µM, 11800 nM and 15.3 µM, respectively.

As to `CC(=O)c1c(O)c(C)c(O)c2c1OC1=CC(=O)C(C(C)=O)C(=O)[C@@]12C` (single isomer, unassigned; (+)) [(+)-usnic acid], the half-inhibitory concentration (IC50) in test [1] amounted to 6.05 µM; in test [2], 2920 nM; in test [3] it was 7.17 µM.

Take `CCC(CC)COC(=O)[C@H](C)N[P@](=O)(OC[C@H]1O[C@@](C#N)(c2ccc3c(N)ncnn23)[C@H](O)[C@@H]1O)Oc1ccccc1` [remdesivir]: the figures for the IC50 in test [1], in test [2] and in test [3] were 2.25 µM, 1470 nM and 6.48 µM, respectively.
